Test system: PICS mouse model
Test: PICS score in PICS mouse model (sepsis/ICU-care model)
Format: in vivo
Conditions: follow-up study; fluoxetine 20 mg/kg, whey protein 1.8 g/kg, daily oral gavage; in contrast to collagen hydrolysate
Protocol: A validated PICS mouse model was used, which is based on the model of Hujinami et al. (J Clin Med. 2021 April; 10(8): 1593.). The model is proven to induce PICS by mimicking ICU care following polymicrobial sepsis. This is achieved by intraperitoneal injection with cecal slurry followed by other typical ICU-related interventions (i.e. antibiotics and saline administration) for 72 h. The model incorporates a specific combination of physical (grip strength test), mental (anxiety level), and cognitive (discrimination index, habituation index, exploration time) parameters that often characterize PICS.
The development of PICS in the model was first confirmed in a pilot study (not shown herein). The mice develop PICS after ˜1 week.
The mice (C57BL6J, Charles River laboratories, France) receive collagen hydrolysate (“CH”, Peptan, Porcine ˜1800 Da, Rousselot B. V.) or the relevant controls according to the following experimental groups: • 1. No PICS+vehicle (saline), i.e. “Control” • 2. PICS+vehicle (saline), i.e. “PICS” • 3. PICS+CH 1.8 g/kg (˜10 g clinical dose), i.e. “PICS+low dose CH” • 4. PICS+CH 8 g/kg (˜44 g clinical dose), i.e. “PICS+high dose CH”
The mice are administered once a day from day 12 through day 47.
Treatment is started 4 days after the induction of PICS. The CH or vehicle is administered by daily oral gavage for a duration of […] (day 12-47). […]

In the case of CNCCC(Oc1ccc(C(F)(F)F)cc1)c1ccccc1 (stereo not shown) [fluoxetine], the “improvement in PICS score” value is reported as “little/no improvement”.

— patent publication US12226459B2, “Collagen hydrolysate for use in prevention and/or treatment of post intensive care syndrome (pics)” (ROUSSELOT B.V., priority 2022, dated 2025)
